Assay results as given in US20160083643A1, “ENHANCED OIL RECOVERY METHOD EMPLOYING A BIODEGRADABLE BRINE TOLERANT FOAM-FORMING COMPOSITION” (DOW GLOBAL TECHNOLOGIES LLC, priority 2013, published 2016).

What was measured:
Daphna magna = assay: 48-hour acute toxicity to Daphna magna; format: in vivo; conditions: isolated, purified component from Example 3
Desmondesmus subspicatus = assay: Fresh water algal growth inhibition test (OECD 201); format: cell-based; conditions: isolated, purified component from Example 3; read-out: Fresh Water algal growth inhibition test with Desmondesmus subspicatus ErC50/0-3
From the text: Aquatic Toxicity procedures and test methods are based on the recommendations of the following guidelines: Organization for Economic Cooperation and Development (OECD): OECD Guidelines for the Testing of Chemicals, “Freshwater Alga and Cyanobacteria, Growth Inhibition Test”, Procedure 201, adopted 23 Mar. 2006; European Economic Community (EEC): Commission directive 92/69/EEC of 31 Jul. 1992, Methods for the determination of ecotoxicity, C.3., “Algal Inhibition Test”. Preferably the surfactants of the present invention have a toxicity profile (EC50)>1 and </=10 mg/l; more preferably an EC50>10 and </=100 mg/l; and most preferably an EC50>100 mg/l.
The study procedures and test methods for aquatic toxicity are based on the recommendations of the following guidelines: Organization for Economic Cooperation and Development (OECD): OECD Guidelines for the Testing of Chemicals, “Freshwater Alga and Cyanobacteria, Growth Inhibition Test”, Procedure 201, adopted 23 Mar. 2006; European Economic Community (EEC): Commission directive 92/69/EEC of 31 Jul. 1992, Methods for the determination of ecotoxicity, C.3., “Algal Inhibition Test”.
Data from the aquatic toxicity tests of the isolated and purified C12 monosulfonate (sodium 2-(dodecanyloxy)-3-hydroxypropane-1-sulfonate) and C12 disulfonate (sodium 2-(dodecanyloxy)propane-1,3-disulfonate) from Example 3 is shown in Table 2. […]

For CCCCCCCCCCCCOC(CS(=O)(=O)[O-])CS(=O)(=O)[O-].[Na+].[Na+] [C12 disulfonate component, sodium 2-(dodecanyloxy)propane-1,3-disulfonate], the EC50 (Daphna magna) was > 100 µg/mL and the EC50 (Desmondesmus subspicatus) was > 100 µg/mL.

CCCCCCCCCCCCOC(CO)CS(=O)(=O)[O-].[Na+] (stereo not shown) [C12 monosulfate component, sodium 2-(dodecanyloxy)-3-hydroxypropane-1-sulfonate] was tested, and the EC50 (Daphna magna) was > 100 µg/mL and the EC50 (Desmondesmus subspicatus) was > 100 µg/mL.
